Source: the supplement of paper PMC10307832

Key:
Experiment in all cases: relative viability (nuclei count vs DMSO), 5 days (fraction); higher = more cells survive
[1] = compound: C1/C(=C\C2=CC=CS2)/C(=O)/C(=C/C3=CC=CS3)/C1 + CS(=O)(=O)CCNCc1ccc(-c2ccc3ncnc(Nc4ccc(OCc5cccc(F)c5)c(Cl)c4)c3c2)o1 [Lapatinib] (partner 2 µM)
Summary of the method: (§1)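 Five library-drug doses in √10 steps were combined with a fixed anchor-drug dose, or a single drug was given alone, by pin tool to lung cancer cell lines in 1536-well plates the day after seeding. Nuclei were stained and counted after 5 days. Relative viability is the nuclei count in treated wells over that in vehicle wells, taken as the median of duplicate plates.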

TPCA-1 + Dasatinib = compound: C1=CC(=CC=C1C2=CC(=C(S2)NC(=O)N)C(=O)N)F [TPCA-1] + Cc1nc(Nc2ncc(C(=O)Nc3c(C)cccc3Cl)s2)cc(N2CCN(CCO)CC2)n1 [Dasatinib] (partner 0.075 µM)
Summary of the method: as §1

TPCA-1 + Trametinib = compound: C1=CC(=CC=C1C2=CC(=C(S2)NC(=O)N)C(=O)N)F [TPCA-1] + CC(=O)Nc1cccc(-n2c(=O)n(C3CC3)c(=O)c3c(Nc4ccc(I)cc4F)n(C)c(=O)c(C)c32)c1 [Trametinib] (partner 0.02 µM)
Summary of the method: as §1

TPCA-1 + Lapatinib = compound: C1=CC(=CC=C1C2=CC(=C(S2)NC(=O)N)C(=O)N)F [TPCA-1] + CS(=O)(=O)CCNCc1ccc(-c2ccc3ncnc(Nc4ccc(OCc5cccc(F)c5)c(Cl)c4)c3c2)o1 [Lapatinib] (partner 2 µM)
Summary of the method: as §1

Row | Cell Line | relative viability ([1]; first compound 0.2 µM) | relative viability ([1]; first compound 0.6325 µM) | relative viability ([1]; first compound 2 µM) | relative viability ([1]; first compound 6.325 µM) | relative viability ([1]; first compound 20 µM) | relative viability (TPCA-1 + Dasatinib; first compound 0.04 µM) | relative viability (TPCA-1 + Dasatinib; first compound 0.1265 µM) | relative viability (TPCA-1 + Dasatinib; first compound 0.4 µM) | relative viability (TPCA-1 + Dasatinib; first compound 1.265 µM) | relative viability (TPCA-1 + Dasatinib; first compound 4 µM) | relative viability (TPCA-1 + Trametinib; first compound 0.04 µM) | relative viability (TPCA-1 + Trametinib; first compound 0.4 µM) | relative viability (TPCA-1 + Trametinib; first compound 1.265 µM) | relative viability (TPCA-1 + Trametinib; first compound 4 µM) | relative viability (TPCA-1 + Lapatinib; first compound 0.04 µM) | relative viability (TPCA-1 + Lapatinib; first compound 0.1265 µM) | relative viability (TPCA-1 + Lapatinib; first compound 0.4 µM) | relative viability (TPCA-1 + Lapatinib; first compound 1.265 µM) | relative viability (TPCA-1 + Lapatinib; first compound 4 µM) | relative viability (TPCA-1 + Trametinib; first compound 0.1265 µM)
1 | EKVX | 0.184 | 0.207 | 0.264 | 0.185 | 0.199 | 0.535 | 0.542 | 0.529 | 0.487 | 0.627 | 0.507 | 0.376 | 0.216 | 0.313 | 0.217 | 0.184 | 0.241 | 0.198 | 0.205 | 
2 | NCI-H520 | 0.912 | 0.896 | 0.786 | 0.817 | 0.763 | 0.219 | 0.187 | 0.223 | 0.18 | 0.176 | 0.773 | 0.75 | 0.674 | 0.278 | 0.905 | 0.752 | 0.879 | 0.756 | 0.168 | 0.69
3 | LCLC-97TM1 | 1.14 | 0.806 | 1.15 | 0.955 | 1.18 | 0.94 | 0.679 | 0.772 | 0.658 | 0.717 | 0.208 | 0.163 | 0.205 | 0.204 | 1.47 | 0.719 | 1.3 | 0.852 | 0.518 | 0.152
4 | NCI-H2170 | 0.301 | 0.255 | 0.282 | 0.232 | 0.283 | 0.676 | 0.56 | 0.632 | 0.581 | 0.269 | 0.903 | 0.937 | 0.866 | 0.455 | 0.263 | 0.272 | 0.261 | 0.284 | 0.248 | 0.907
5 | NCI-H1793 | 0.913 | 0.611 | 0.86 | 0.519 | 0.674 | 0.422 |  | 0.342 | 0.365 | 0.211 | 0.466 | 0.4 | 0.451 | 0.384 | 1.05 | 0.669 | 0.837 | 0.929 | 0.354 | 0.473
